Measured values: paper PMC8330740, “Discovery of new 3-methylquinoxalines as potential anti-cancer agents and apoptosis inducers targeting VEGFR-2: design, synthesis, and in silico studies” (Journal of Enzyme Inhibition and Medicinal Chemistry, 2021)

Legend:
[1] = test system: MCF-7 (human breast cancer cell line); experiment: MTT cytotoxicity assay, MCF-7; format: cell-based; settings: for IC50: Homo sapiens, MCF7, MTT assay, mean of at least three different experiments; for Cytotoxic activity against the two cell lines (in words): MCF-7 and HepG2 together
Description: (§1) In vitro cytotoxicity was carried out using MTT assay protocol[47]^,[65–67] as described in Supplementary data.

[2] = biological target: Human VEGFR-2 (Homo sapiens, UniProt P35968); experiment: In vitro VEGFR-2 kinase assay (Human VEGFR-2 ELISA kit)
[3] = test system: HepG2 (human liver carcinoma cell line); experiment: MTT cytotoxicity assay, HepG2; format: cell-based; settings: mean of at least three different experiments
Description: as §1

[4] = test system: caspase-9; experiment: Western blot, caspase-9 level in HepG2; format: cell-based, human; settings: HepG2, 2.1 µM, 24 h; compared to control cells
Description: (§2) To investigate the effect of the synthesised compounds on caspase-3 and caspase-9 levels, the most promising member 11e was applied on the most sensitive cells (HepG2) at a concentration of 2.1 µM for 24 h.
(§3) Western blot technique was applied to assess the potential effect of compound 11e on the expression of caspase‐9, caspase‐3, BAX, and Bcl‐2 as reported in Supplementary data[77–79].

[5] = test system: caspase-3; experiment: Western blot, caspase-3 level in HepG2; format: cell-based, human; settings: HepG2, 2.1 µM, 24 h; compared to control cells
Description: as §2, §3

[6] = test system: HepG2 cells; experiment: Apoptosis analysis (Annexin-V/propidium iodide staining); format: cell-based, human; settings: HepG2, 2.1 µM, 24 h
Description: To quantify the apoptosis triggered by 11e, Annexin-V/propidium iodide (PI) staining assay was conducted. In such procedure, compound 11e at a concentration of 2.1 µM was applied on HepG2 cells. Then, the media were incubated for 24 h. […] In details, compound 11e induced apoptosis by 49.14% (early apoptosis = 48.87% & late apoptosis = 0.27%), compared to 9.71% in the control cells (early apoptosis = 9.58% & late apoptosis = 0.13%).
The effect of compound 11e on cell apoptosis was investigated as described in Supplementary data[74–76].

[7] = test system: HepG2 cells; experiment: Cell cycle analysis (propidium iodide staining, flow cytometry); format: cell-based, human; settings: HepG2, 2.1 µM, 24 h
Description: HepG2 cells were used as a control without treatment by compound 11e.
The effect of compound 11e on cell cycle distribution was performed using propidium iodide (PI) staining technique as described in Supplementary data[71–73].

[8] = test system: BAX; experiment: Western blot, BAX level in HepG2; format: cell-based, human; settings: HepG2, 24 h
Description: (§4) Compound 11e as a promising member was investigated to evaluate its effect on BAX and Bcl-2 after 24 h of its application on HepG2 cells using Western blot technique.
as §3

[9] = test system: Bcl-2; experiment: Western blot, Bcl-2 level in HepG2; format: cell-based, human; settings: HepG2, 24 h
Description: as §4, §3

[10] = test system: primary rat hepatocytes; experiment: In vitro cytotoxicity against normal cells; settings: Hepatocyte, read-out: IC50 primary rat hepatocytes
[11] = mean ± SD of three experiments, listed as Compound 11e

Human VEGFR-2, sequence (P35968 20-1356): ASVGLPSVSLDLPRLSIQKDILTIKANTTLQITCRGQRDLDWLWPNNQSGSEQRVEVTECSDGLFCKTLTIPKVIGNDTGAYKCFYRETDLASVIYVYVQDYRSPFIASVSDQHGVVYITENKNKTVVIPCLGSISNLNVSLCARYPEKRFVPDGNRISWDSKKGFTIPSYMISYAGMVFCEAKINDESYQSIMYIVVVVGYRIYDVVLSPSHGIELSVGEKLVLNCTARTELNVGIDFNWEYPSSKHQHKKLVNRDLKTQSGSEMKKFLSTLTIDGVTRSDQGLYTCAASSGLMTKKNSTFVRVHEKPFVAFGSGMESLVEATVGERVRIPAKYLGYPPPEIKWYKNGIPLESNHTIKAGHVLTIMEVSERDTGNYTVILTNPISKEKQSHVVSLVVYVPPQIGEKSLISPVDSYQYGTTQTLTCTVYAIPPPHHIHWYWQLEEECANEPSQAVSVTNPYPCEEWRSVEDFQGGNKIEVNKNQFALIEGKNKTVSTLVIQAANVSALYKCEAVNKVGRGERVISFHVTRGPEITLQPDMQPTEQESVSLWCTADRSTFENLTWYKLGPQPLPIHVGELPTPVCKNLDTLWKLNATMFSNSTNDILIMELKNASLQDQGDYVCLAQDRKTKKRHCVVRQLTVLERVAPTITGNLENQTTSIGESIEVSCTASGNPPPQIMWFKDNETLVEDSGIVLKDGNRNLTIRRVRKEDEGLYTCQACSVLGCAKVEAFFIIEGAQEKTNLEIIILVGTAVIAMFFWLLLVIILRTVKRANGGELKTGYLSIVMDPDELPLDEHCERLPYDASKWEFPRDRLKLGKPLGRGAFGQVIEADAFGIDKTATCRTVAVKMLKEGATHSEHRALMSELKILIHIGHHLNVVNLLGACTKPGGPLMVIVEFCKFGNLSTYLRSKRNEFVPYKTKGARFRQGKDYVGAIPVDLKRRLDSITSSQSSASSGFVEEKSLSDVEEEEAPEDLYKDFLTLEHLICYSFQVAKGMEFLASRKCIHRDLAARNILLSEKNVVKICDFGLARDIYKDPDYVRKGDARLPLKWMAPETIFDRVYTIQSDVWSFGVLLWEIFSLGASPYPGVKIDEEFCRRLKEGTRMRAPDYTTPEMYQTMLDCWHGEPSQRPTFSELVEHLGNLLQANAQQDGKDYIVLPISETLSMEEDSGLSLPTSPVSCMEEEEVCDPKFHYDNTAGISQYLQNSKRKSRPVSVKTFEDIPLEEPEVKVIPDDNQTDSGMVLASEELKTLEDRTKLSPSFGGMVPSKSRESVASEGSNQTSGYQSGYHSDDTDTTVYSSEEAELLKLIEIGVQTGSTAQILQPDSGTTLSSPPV

| IC50 [2] [µM] | SMILES | IC50 [1] [µM] | IC50 [3] [µM] | further results |
| --- | --- | --- | --- | --- |
| 0.0157 | CCC(C)NC(=O)c1ccc(NC(=O)CSc2nc3ccccc3nc2C)cc1 (stereo not drawn) [Compound 12b, N-(sec-Butyl)-4–(2-((3-methylquinoxalin-2-yl)thio)acetamido)benzamide] | 35.7 | 21.7 | Cytotoxic activity against the two cell lines (in words) [1]: weak cytotoxic activity |
| 0.0026 | COc1cccc(NC(=O)c2ccc(NC(=O)Cn3c(=O)c(C)nc4ccccc43)cc2)c1 [Compound 11e, N-(3-Methoxyphenyl)-4–(2-(3-methyl-2-oxoquinoxalin-1(2H)-yl)acetamido)benzamide] | 2.7 | 2.1 | increase in the level of caspase-9 [4]: 2.34 fold; increase in the level of caspase-3 [5]: 2.34 fold; induced apoptosis (early + late) ([6]; control 9.71%): 49.14%; Apoptosis Early (Right Bottom) ([6]; mean ± SD of three experiments): 48.87%; Apoptosis Late (Right Top) ([6]; mean ± SD of three experiments): 0.27%; Necrosis (Left Top) ([6]; mean ± SD of three experiments): 0.20 ± 0.03; Apoptosis Early (Right Bottom) [6, 11]: 48.87 ± 3.69%; Apoptosis Late (Right Top) [6, 11]: 0.27 ± 0.04%; viability at 2.1 µM ([6]; Homo sapiens, mean ± SD of three experiments, read-out: Viable (Left Bottom)): 50.6 ± 3.66%; phase at which HepG2 cell growth is arrested [7]: G2/M phase; percentage of cells at the G2/M phase ([7]; control 18.24%): 46.62%; percentage of cells at the S phase ([7]; control 25.48): 31.80%; percentage of cells at G1 phase ([7]; control 55.03%): 20.34%; BAX level increase [8]: 3.14 fold; BAX/Bcl-2 ratio [8]: 9.17; Bcl-2 level decrease [9]: 3.13 fold; IC50 [10]: 15 µM |
| 0.0038 | COc1ccc(NC(=O)c2ccc(NC(=O)CSc3nc4ccccc4nc3C)cc2)cc1 [Compound 12f, N-(4-Methoxyphenyl)-4–(2-((3-methylquinoxalin-2-yl)thio)acetamido) benzamide] | 10.8 | 7.5 |  |
| 0.0054 | CC(=O)c1ccc(NC(=O)c2ccc(NC(=O)CSc3nc4ccccc4nc3C)cc2)cc1 [Compound 12g, N-(4-Acetylphenyl)-4–(2-((3-methylquinoxalin-2-yl)thio)acetamido)benzamide] | 8.7 | 6.1 |  |
| 0.0374 | COc1ccccc1NC(=O)c1ccc(NC(=O)Cn2c(=O)c(C)nc3ccccc32)cc1 [Compound 11d, N-(2-Methoxyphenyl)-4–(2-(3-methyl-2-oxoquinoxalin-1(2H)-yl)acetamido)benzamide] | 52.3 | 34.1 | Cytotoxic activity against the two cell lines (in words) [1]: weak cytotoxic activity |
| 0.0029 | Cc1ccc(NC(=O)c2ccc(NC(=O)CSc3nc4ccccc4nc3C)cc2)cc1 [Compound 12k, 4–(2-((3-Methylquinoxalin-2-yl)thio)acetamido)-N-(p-tolyl)benzamide] | 9.8 | 6.7 |  |
| 0.0048 | COc1ccc(NC(=O)c2ccc(NC(=O)Cn3c(=O)c(C)nc4ccccc43)cc2)cc1 [Compound 11f, N-(4-Methoxyphenyl)-4–(2-(3-methyl-2-oxoquinoxalin-1(2H)-yl)acetamido)benzamide] | 12.4 | 9.6 |  |
| 0.0112 | CNC(=O)c1ccc(NC(=O)Cn2c(=O)c(C)nc3ccccc32)cc1 [Compound 11a, N-Methyl-4–(2-(3-methyl-2-oxoquinoxalin-1(2H)-yl)acetamido)benzamide] | 23.9 | 16.5 |  |
| 0.0034 | CC(=O)c1ccc(NC(=O)c2ccc(NC(=O)Cn3c(=O)c(C)nc4ccccc43)cc2)cc1 [Compound 11g, N-(4-Acetylphenyl)-4–(2-(3-methyl-2-oxoquinoxalin-1(2H)-yl)acetamido)benzamide] | 6.7 | 3.8 |  |
| 0.0514 | Cc1nc2ccccc2nc1SCC(=O)Nc1ccc(C(=O)Nc2ccc(F)cc2)cc1 [Compound 12h, N-(4-Fluorophenyl)-4–(2-((3-methylquinoxalin-2-yl)thio)acetamido)benzamide] | 67.8 | 35.8 |  |
| 0.0038 | COc1cccc(NC(=O)c2ccc(NC(=O)CSc3nc4ccccc4nc3C)cc2)c1 [Compound 12e, N-(3-Methoxyphenyl)-4–(2-((3-methylquinoxalin-2-yl)thio)acetamido) benzamide] | 5.3 | 4.8 | IC50 [10]: 16.7 µM |
| 0.0198 | Cc1nc2ccccc2nc1SCC(=O)Nc1ccc(C(=O)NC2CCCC2)cc1 [Compound 12c, N-Cyclopentyl-4–(2-((3-methylquinoxalin-2-yl)thio)acetamido)benzamide] | 31.3 | 18.7 |  |
| 0.0116 | Cc1nc2ccccc2n(CC(=O)Nc2ccc(C(=O)Nc3ccc(F)cc3)cc2)c1=O [Compound 11h, N-(4-Fluorophenyl)-4–(2-(3-methyl-2-oxoquinoxalin-1(2H)-yl)acetamido)benzamide] | 25.8 | 22.7 | Cytotoxic activity against the two cell lines (in words) [1]: weak cytotoxic activity |
|  | CNC(=O)c1cc(Oc2ccc(NC(=O)Nc3ccc(Cl)c(C(F)(F)F)c3)cc2)ccn1 [Sorafenib, reference compound] | 3.4 | 2.2 | IC50 [10]: 13.4 µM |
| 0.0378 | Cc1cccc(NC(=O)c2ccc(NC(=O)CSc3nc4ccccc4nc3C)cc2)c1 [Compound 12j, 4–(2-((3-Methylquinoxalin-2-yl)thio)acetamido)-N-(m-tolyl)benzamide] | 61.2 | 40.7 |  |
| 0.0127 | Cc1nc2ccccc2n(CC(=O)Nc2ccc(C(=O)NC3CCCC3)cc2)c1=O [Compound 11c, N-Cyclopentyl-4–(2-(3-methyl-2-oxoquinoxalin-1(2H)-yl)acetamido)benzamide] | 28.1 | 18.7 |  |
| 0.0327 | CNC(=O)c1ccc(NC(=O)CSc2nc3ccccc3nc2C)cc1 [Compound 12a, N-Methyl-4–(2-((3-methylquinoxalin-2-yl)thio)acetamido)benzamide] | 69.2 | 23.7 | Cytotoxic activity against the two cell lines (in words) [1]: weak cytotoxic activity |
| 0.0053 | CCC(C)NC(=O)c1ccc(NC(=O)Cn2c(=O)c(C)nc3ccccc32)cc1 (stereo not drawn) [Compound 11b, N-(sec-Butyl)-4–(2-(3-methyl-2-oxoquinoxalin-1(2H)-yl)acetamido)benzamide] | 21.2 | 12.8 |  |
| 0.0241 | Cc1nc2ccccc2nc1SCC(=O)Nc1ccc(C(=O)Nc2ccccn2)cc1 [Compound 12i, 4–(2-((3-Methylquinoxalin-2-yl)thio)acetamido)-N-(pyridin-2-yl)benzamide] | 58.6 | 44.7 |  |
| 0.0134 | Cc1nc2ccccc2n(CC(=O)Nc2ccc(C(=O)Nc3nccs3)cc2)c1=O [Compound 11j, 4–(2-(3-Methyl-2-oxoquinoxalin-1(2H)-yl)acetamido)-N-(thiazol-2-yl)benzamide] | 32.8 | 27.8 | Cytotoxic activity against the two cell lines (in words) [1]: weak cytotoxic activity |
| 0.0527 | Cc1nc2ccccc2n(CC(=O)Nc2ccc(C(=O)Nc3ccccn3)cc2)c1=O [Compound 11i, 4–(2-(3-Methyl-2-oxoquinoxalin-1(2H)-yl)acetamido)-N-(pyridin-2-yl)benzamide] | 69.7 | 51.8 | Cytotoxic activity against the two cell lines (in words) [1]: weak cytotoxic activity |
| 0.0134 | COc1ccccc1NC(=O)c1ccc(NC(=O)CSc2nc3ccccc3nc2C)cc1 [Compound 12d, N-(2-Methoxyphenyl)-4–(2-((3-methylquinoxalin-2-yl)thio)acetamido) benzamide] | 23.5 | 17.6 |  |
